Experimental data: patent US12109272B2, “Intermittent dosing of glucocorticoid receptor modulators for the treatment of ovarian and other cancers” (Corcept Therapeutics Incorporated, priority 2021, dated 2024)

Assays:
Assay type in all cases: in vivo, human
GR-inducible genes = test: Separate healthy volunteer study: genes induced in whole blood by prednisone; settings: single dose, healthy volunteers
[1] = Phase 2 study: exposures (AUC, Cmax) of relacorilant and nab-paclitaxel; settings: patients
Procedure: The exposures and peak concentrations of both nab-paclitaxel and of relacorilant were measured.

[2] = Phase 2 study: safety and tolerability (adverse events); settings: relacorilant (intermittent or continuous) + nab-paclitaxel compared to nab-paclitaxel monotherapy; data as of Mar. 22, 2021
Procedure: Independent comparisons for the intermittent versus (vs.) comparator study arms and the continuous vs. comparator arms were performed. The primary endpoint of the study was progression-free survival as determined by the Response Evaluation Criteria in Solid Tumors (“RECIST”) version 1.1 guidelines (available via the World Wide Web at the following URL: ctep.cancer.gov/protocolDevelopment/docs/recist_guideline.pdf). Secondary endpoints included objective response rate, duration of response, overall survival, and safety of the combined administration of nab-paclitaxel and relacorilant. All efficacy objectives and corresponding endpoints listed below, assessment for response and disease progression were assessed according to RECIST v1.1.
Relacorilant treatment was safe, for both the intermittent and continuous groups, and was well tolerated by the patients. […] Safety and tolerability of the three treatment regimens is illustrated in FIG. 8 (data as of Mar. 22, 2021). There were fewer serious (grade ≥3) peripheral neuropathies in the intermittent group than the comparator group. […]

| SMILES | number of genes induced (GR-inducible genes) | exposures (AUC and Cmax) versus safety endpoints, presence or absence of the adverse events [1] | variability of exposures ([1]; all groups, AUC and Cmax) | safety and tolerability [2] |
| --- | --- | --- | --- | --- |
| C[C@]12C=CC(=O)C=C1CC[C@@H]1[C@@H]2C(=O)C[C@@]2(C)[C@H]1CC[C@]2(O)C(=O)CO [prednisone] | 239 | – | – | – |
| Cn1cc(S(=O)(=O)N2CCC3=Cc4c(cnn4-c4ccc(F)cc4)C[C@]3(C(=O)c3cc(C(F)(F)F)ccn3)C2)cn1 [relacorilant, (R)-(1-(4-fluorophenyl)-6-((1-methyl-1H-pyrazol-4-yl)sulfonyl)-4,4a,5,6,7,8-hexahydro-1H-pyrazolo[3,4-g]isoquinolin-4a-yl)(4-(trifluoromethyl)pyridin-2-yl)methanone] | – | largely overlapping exposures | large variability | safe |
